From patent US20170190671A1, “BIS(ARYL)CATECHOL DERIVATIVES AS HERBICIDES” (E I DU PONT DE NEMOURS AND COMPANY, priority 2014, published 2017)

Experiments:
Assay in all cases: Test E postemergence
Assay type in all cases: in vivo
Settings in all cases: scale 0 to 100
[1] = system: Brazilian crabgrass (Digitaria horizontalis)
Text: (§1) Seeds of plant species selected from corn (Zea mays), soybean (Glycine max), velvetleaf (Abutilon theophrasti), cocklebur (common cocklebur, Xanthium strumarium), lambsquarters (Chenopodium album), wild poinsettia (Euphorbia heterophylla), palmer pigweed (Amaranthus palmeri), waterhemp (common waterhemp, Amaranthus rudis), surinam grass (Brachiaria decumbens), large (Lg) crabgrass (Digitaria sanguinalis), Brazilian crabgrass (Digitaria horizontalis), fall panicum (Panicum dichotomiflorum), giant foxtail (Setaria faberii), green foxtail (Setaria viridis), goosegrass (Eleusine indica), johnsongrass (Sorghum halepense), ragweed (common ragweed, Ambrosia elatior), barnyardgrass (Echinochloa crus-galli), sandbur (southern sandbur, Cenchrus echinatus), arrowleaf sida (Sida rhombifolia), Italian ryegrass (Lolium multiflorum), dayflower (Virginia (VA) dayflower, Commelina virginica), field bindweed (Convolvulus arvensis), morningglory (Ipomoea coccinea), nightshade (eastern black nightshade, Solanum ptycanthum), kochia (Kochia scoparia), yellow nutsedge (Cyperus esculentus), horseweed (Conyza canadensis), and hairy beggarticks (Bidens pilosa), were planted into a silt loam soil and treated preemergence with test chemicals formulated in a non-phytotoxic solvent mixture which included a surfactant.
(§2) At the same time, plants from these crop and weed species and also waterhemp_RES1, (ALS & Triazine resistant common waterhemp, Amaranthus rudis), and waterhemp_RES2, (ALS & HPPD resistant common waterhemp, Amaranthus rudis) were planted in pots containing Redi-Earth® planting medium (Scotts Company, 14111 Scottslawn Road, Marysville, Ohio 43041) comprising spaghnum peat moss, vermiculite, wetting agent and starter nutrients were treated with postemergence applications of test chemicals formulated in the same manner. Plants ranged in height from 2 to 18 cm for postemergence treatments (1- to 4-leaf stage). Treated plants and controls were maintained in a greenhouse for 14 to 21 days, after which time all species were compared to controls and visually evaluated. Plant response ratings, summarized in Table E, are based on a scale of 0 to 100 where 0 is no effect and 100 is complete control. A dash (-) response means no test result.

[2] = system: arrowleaf sida (Sida rhombifolia)
Text: as §1, §2

[3] = system: barnyardgrass (Echinochloa crus-galli)
Text: as §1, §2

[4] = system: dayflower (Virginia (VA) dayflower, Commelina virginica)
Text: as §1, §2

[5] = system: horseweed (Conyza canadensis)
Text: as §1, §2

[6] = system: kochia (Kochia scoparia)
Text: as §1, §2

[7] = system: sandbur (southern sandbur, Cenchrus echinatus)
Text: as §1, §2

[8] = system: soybean (Glycine max)
Text: as §1, §2

[9] = system: waterhemp (common waterhemp, Amaranthus rudis)
Text: as §1, §2

[10] = system: waterhemp_RES2 (ALS & HPPD resistant common waterhemp, Amaranthus rudis)
Text: as §1, §2

[11] = system: wild poinsettia (Euphorbia heterophylla)
Text: as §1, §2

## N#Cc1cccc(Oc2ncc(Cl)cn2)c1Oc1ccc(Cl)cc1 [Compound 36]
[1]; 16 g ai/ha
  Plant response rating, Crabgrass, Brazil: 20
[1]; 31 g ai/ha
  Plant response rating, Crabgrass, Brazil: 20
[1]; 62 g ai/ha
  Plant response rating, Crabgrass, Brazil: 30
[1]; 125 g ai/ha
  Plant response rating, Crabgrass, Brazil: 30
[2]; 16 g ai/ha
  Plant response rating, Arrowleaf Sida: 70
[2]; 31 g ai/ha
  Plant response rating, Arrowleaf Sida: 70
[2]; 62 g ai/ha
  Plant response rating, Arrowleaf Sida: 80
[2]; 125 g ai/ha
  Plant response rating, Arrowleaf Sida: 85
[3]; 16 g ai/ha
  Plant response rating, Barnyardgrass: 20
[3]; 31 g ai/ha
  Plant response rating, Barnyardgrass: 25
[3]; 62 g ai/ha
  Plant response rating, Barnyardgrass: 30
[3]; 125 g ai/ha
  Plant response rating, Barnyardgrass: 50
[4]; 16 g ai/ha
  Plant response rating, Dayflower, VA: 20
[4]; 31 g ai/ha
  Plant response rating, Dayflower, VA: 50
[4]; 62 g ai/ha
  Plant response rating, Dayflower, VA: 60
[4]; 125 g ai/ha
  Plant response rating, Dayflower, VA: 70
[5]; 16 g ai/ha
  Plant response rating, Horseweed: 0
[5]; 31 g ai/ha
  Plant response rating, Horseweed: 0
[5]; 62 g ai/ha
  Plant response rating, Horseweed: 5
[5]; 125 g ai/ha
  Plant response rating, Horseweed: 10
[6]; 16 g ai/ha
  Plant response rating, Kochia: 90
[6]; 31 g ai/ha
  Plant response rating, Kochia: 95
[6]; 62 g ai/ha
  Plant response rating, Kochia: 100
[6]; 125 g ai/ha
  Plant response rating, Kochia: 95
[7]; 16 g ai/ha
  Plant response rating, Sandbur: 10
[7]; 31 g ai/ha
  Plant response rating, Sandbur: 20
[7]; 62 g ai/ha
  Plant response rating, Sandbur: 20
[7]; 125 g ai/ha
  Plant response rating, Sandbur: 25
[8]; 16 g ai/ha
  Plant response rating, Soybean: 60
[8]; 31 g ai/ha
  Plant response rating, Soybean: 50
[8]; 62 g ai/ha
  Plant response rating, Soybean: 70
[8]; 125 g ai/ha
  Plant response rating, Soybean: 50
[9]; 16 g ai/ha
  Plant response rating, Waterhemp: 95
[9]; 31 g ai/ha
  Plant response rating, Waterhemp: 90
[9]; 62 g ai/ha
  Plant response rating, Waterhemp: 95
[9]; 125 g ai/ha
  Plant response rating, Waterhemp: 95
[10]; 16 g ai/ha
  Plant response rating, Waterhemp_RES2: 60
[10]; 31 g ai/ha
  Plant response rating, Waterhemp_RES2: 90
[10]; 62 g ai/ha
  Plant response rating, Waterhemp_RES2: 80
[10]; 125 g ai/ha
  Plant response rating, Waterhemp_RES2: 90
[11]; 16 g ai/ha
  Plant response rating, Poinsettia, Wild: 50
[11]; 31 g ai/ha
  Plant response rating, Poinsettia, Wild: 60
[11]; 62 g ai/ha
  Plant response rating, Poinsettia, Wild: 70
[11]; 125 g ai/ha
  Plant response rating, Poinsettia, Wild: 90
